Test results from patent publication US11207343B2, “Compositions and therapeutic methods” (AyuVis Research LLC, priority 2016, dated 2021).

Assays:
[1] = test system: LPS induced cytokines (TNF-α, IL-1β and IL-6) in human monocytes; assay: Inhibition of LPS induced inflammatory mediators in human monocytes; assay type: cell-based; details: for inhibiting LPS induced inflammation biomarkers (TNF-α, IL-1β and IL-6) in human monocytes: concentration not given; for inhibition of LPS induced TNF-α production: 100 μM
Protocol: To understand the structural requirement and limitations to probe the TLR4 binding pocket for optimal potency and efficacy, we have studied the ability of chitooligomers to inhibit LPS induced inflammation in human monocytes (FIG-8 A-B). Compounds 1-4 inhibited LPS induced cytokines TNF-α, IL-1β and IL-6) in a statistically significant manner at 10 μM concentration. […] The protocol was followed as described [Panda etal, PLoS Pathog 2012, 8, e1002717]. Human monocytes were stimulated with LPS along with the series of compounds (10 μM) for 48 h. TNF-α, IL-1β, I1-6 in culture supernatants were quantified according to the manufacturer's instruction. Similarly, other analogs were assessed for their ability to inhibit LPS induced TNF-α production in human monocytes.

[2] = test system: gram negative (E. Coli, P. Aeruginosa, A, Baumannii, K. Pneumonia), gram positive (MRSA), fungus (C. Albicans); assay: MIC broth microdilution antimicrobial screen; assay type: cell-based
Text: The compounds were screened against selected gram negative (E. Coli, P. Aeruginosa, A, Baumannii, K. Pneumonia), gram positive (MRSA) as well as fungus (C. Albicans) mostly found in burn and septic wounds. […] All prepared compounds have been evaluated in a Minimum Inhibitory Concentrations (MIC) assay with both test and control articles in accordance with guidelines of the Clinical Laboratory Standards Institute (CLSI) for broth microdilution susceptibility testing. Briefly, test and control compounds have been dissolved in DMSO, diluted to proper concentrations and added to 96-well microdilution trays. Brain Heart Infusion Broth (BHI) was used for studies with bacterial strains such as S. aureus, E. coli, P. Aeruginosa, K pneumoniae, A. baumannii and Candida albicans. Compounds were diluted serially from 200 μg/ml to 0.0625 μg/ml and plated in 96 well plates, and inoculated with approximately 1×10^5 CFU of each organism.

[3] = test system: S. aureus biofilms (MRSA, MSSA); assay: Biofilm inhibition and eradication, Calgary Biofilm Device; assay type: cell-based
Text: (§1) Further we studied their biofilm inhibition and eradication activities against biofilm cells as described previously [Ceri et al, Journal of Clinical Microbiology 1999, 37, 1771-1776]. […] Thus, these compounds with activities against S. aureus biofilms will have significant impact on controlling recalcitrant biofilm-mediated endovascular infections [Li et al, J Infect Dis. 2016 Nov. 1;214(9):1421-1429; Archer et al, Virulence 2011, 2, 445-459]. Briefly, we used Calgary Biofilm Device (CBD) technology for the biofilm susceptibilities to compounds. The CBD produces 96 equivalent biofilms for the assay of antibiotic susceptibilities by the standard 96-well technology. Susceptibility to a standard group of compounds and antibiotics was determined for National Committee for Clinical Laboratory Standards (NCCLS) as described previously.

MRSA and MSSA strains = assay: Activity against MRSA and MSSA strains compared to colistin; assay type: cell-based, S. aureus; details: colistin as positive control
Text: as §1

[4] = test system: LPS induced TNF-α in mouse bone marrow derived macrophages; assay: Inflammatory mediator (TNF-α) in mouse bone marrow derived macrophages; assay type: cell-based; details: for inhibition of LPS induced production of TNF-α: 100 μM, 8 hours, mouse bone marrow derived macrophages; for inhibiting LPS and HMGB1 induced inflammation biomarkers (TNF-α, IL-1β and IL-6): bone derived mouse macrophages
Protocol: Bone marrow derived mouse macrophages were treated with 100 μM of the above test compounds for 8 hours. Pro-inflammatory cytokines such as TNF-α protein level was measured by […]. LPS treatment (10 ng/ml) was used as positive control (FIG. 9).

[5] = test system: HMGB1 induced VEGF production in ARPE-19 cells; assay: HMGB1 induced VEGF production in ARPE-19 cells (ELISA); assay type: cell-based, human; details: 50 μg/mL, 100 ng/mL HMGB1, 24 h, p<0.01
Text: Central to photoreceptor survival and function, the RPE is the major source of the angiogenic factor VEGF and therefore plays a central role in the modulation and progression of choroidal neovascularization [Spilsbury et al, The American Journal of Pathology 2000, 157, 135-144; Betts et al, ISRN Ophthalmology 2011, 2011, 184295] leading to AMD. As part of our preliminary result to evaluate if compounds 1 and 2 can inhibit the HMGB1 (an endogenous ligand for TLR4) induced VEGF production in ARPE-19 cells. […] 2×10^5 ARPE-19 cells were seeded in 24 well plate for 24 h in full medium containing 10% serum following which they were maintained for additional 24 h with serum free medium. Cells were treated with 0 μg/mL (medium) or 100 ng/mL of HMGB1 along with or without of 50 μg/mL of test compounds for 24 h. Supernatant was collected and assayed using human VEGF ELISA kit from Peprotech according to manufacturer's instructions. RPE cells are located adjacent to choroidal capillaries and other major ocular vasculatures.

[6] = test system: laser-induced choroidal neovascularization; assay: Laser-induced CNV mouse model for wet AMD; assay type: in vivo, C57BL/6 mice
Text: The parameters used to reproducibly obtain successful laser spots (as confirmed by a gas bubble formation indicating rupture of Bruch membrane) were: 350 mW, 75 msec, and 50 μm spot size. Four laser spots were applied; 2-3 disc diameters from the optic nerve. […] By the end of the experiment, mouse eyes were examined by fundus fluorescein angiography and/or optical coherence tomography (OCT) to visualize the CNV lesions. Afterwards animals were sacrificed and RPE/choroid/sclera flat mounts were prepared and stained with both FITC-conjugated isolectin B4 and anti-ICAM-2 antibody to quantitatively measure the size of CNV. We have performed two experiments to test the effects of 1, 2, 26 on laser-induced CNV.

E. coli (ATCC-25922) = assay: Lethal gram negative E. coli sepsis mouse model; assay type: in vivo; details: 250 μg/animal with 2×10^5 CFU E. coli intraperitoneally, BALB/c mice
Protocol: In an in vivo mice model, chitohexaose (Compound 1) protected mouse from lethal gram negative sepsis against E. coli. Previously reported bacterial sepsis model [Roger etal, Proc Natl Acad Sci USA. 2009 Feb 17;106(7):2348-52] was recruited to study the efficacy of Compound 1 (FIG-1). Intraperitoneally 2×10^5 CFU of E. coli (ATCC-25922) was injected into BALB/c mice with and without Compound 1 (250 μg/animal). E. coli mediated sepsis induced mortality whereas simultaneous treatment of mice with Compound 1 protected (40%) from sepsis induced death. The above result explained that bacteria induced sepsis and mortality is inhibited and delayed for a certain period of time which may provide a window for therapy.

## CC1(C)CC(C(=O)NC2C(OC3C(CO)OC(O)C(N)C3O)OC(CO)C(OC3OC(CO)C(O)C(O)C3N)C2O)CC(C)(C)N1[O] (stereo not shown) [Compound 11]
[1]
  inhibiting LPS induced inflammation biomarkers (TNF-α, IL-1β and IL-6) in human monocytes: unexpectedly superior activity

## CC(=O)NC1C(OC2C(CO)OC(Oc3ccc4c(C)cc(=O)oc4c3)C(NC(C)=O)C2O)OC(CO)C(O)C1O (stereo not shown) [Compound 12]
[2]
  broad spectrum antimicrobial activity against gram negative, gram positive bacteria and fungus: broad spectrum antimicrobial activity
[3]
  inhibition of biofilm formation by MSSA and MRSA: unexpectedly inhibited biofilm formation
[1]; human monocytes
  inhibition of LPS induced TNF-α production: potent inhibitor
MRSA and MSSA strains
  activity against MRSA and MSSA strains compared to colistin: better activity

## COCC1OC(Oc2ccc([N+](=O)[O-])cc2)C(NC(C)=O)C(O)C1O (stereo not shown) [Compound 16]
[1]; human monocytes
  inhibition of LPS induced TNF-α production: potent inhibitor

## chitohepatose [Compound 2]
[4]
  inhibition of LPS induced production of TNF-α: Inhibits
  inhibiting LPS and HMGB1 induced inflammation biomarkers (TNF-α, IL-1β and IL-6): unexpectedly potent activity
[5]
  HMGB1 induced VEGF production: effectively reduced
[1]; 10 μM, human monocytes
  potency relative to chitohexaose (Compound 1), percentage of inhibition of LPS mediated induction of inflammatory cytokines: more potent than chitohexaose
[1]
  inhibiting LPS induced inflammation biomarkers (TNF-α, IL-1β and IL-6) in human monocytes: unexpectedly potent activity
[6]; 200 μg daily i.p. injection
  average size of CNV lesions, relative to control mice treated with vehicle only: about 60%
[6]; as worded in heading of Example 16
  decrease of choroidal neovascularization: ~60%

## chitohexaose [Compound 1]
E. coli (ATCC-25922)
  protection from sepsis induced death: 40%
[4]
  inhibition of LPS induced production of TNF-α: Inhibits
[5]
  HMGB1 induced VEGF production: effectively reduced
MRSA and MSSA strains
  activity against MRSA and MSSA strains compared to colistin: better activity

## chitooctaose [Compound 3]
[4]
  inhibiting LPS and HMGB1 induced inflammation biomarkers (TNF-α, IL-1β and IL-6): unexpectedly potent activity
[1]
  inhibiting LPS induced inflammation biomarkers (TNF-α, IL-1β and IL-6) in human monocytes: unexpectedly potent activity
